The nature of series [1]: Solubility. Format: physicochemical. To be noted: water and organic solvents. How it is done: 4,62 g (0,005 g/moll) of 3-(4-cinnamyl-1-piperazinyl)-iminomethyl rifamycin SV is suspended in 40 ml methanol and 0,1 g sodium ascorbate dissolved in 1 ml water is added. To the obtained suspension 0,9 ml of 30% methanol solution of sodium methylate (equimolar quantity) is added. The suspension immediately turns into a solution because of the formation of the sodium salt. The reaction mixture is filtered to remove the unsolved sediment of sodium ascorbate, and the solvent is concentratrated in vacuum and dried to give the soduim salt as a dark-red solid powder. This product has high purity and the yield is practically quantitative.

The nature of series [2]: Stability of water solutions. The format is physicochemical.
Series [3] deals with Gram-positive microorganisms including aerobic, anaerobic and Mycobacterium (typical and atypical). Description: In vitro antibacterial activity. The settings on record: in comparison with the initial compound T-9. Format: cell-based.
The conditions of series [4]: mouse, in vivo, 20 mg/kg.
For series [5] the following is noted: rat, in vivo, 20 mg/kg.
For series [6] the following is noted: rabbit, in vivo, 20 mg/kg.
A short description of series [7]: Non-model pharmacokinetics in mice. The settings on record: base 20 mg/kg.
The conditions of series [8]: mice; cited from earlier work.
Series [9] concerns generalized tuberculosis. To be noted: doses 10 mg/kg, after 60 days of treatment, test animals; cited from earlier work.

Data on three compounds can be found in patent US6476036B1, “Sodium salt of 3-(4-cinnamyl-1-piperazinyl)-imino-methyl rifamycin SV” (priority 1998, dated 2002).

Read-outs that look alike come from different tables or passages of the source.

As to “sodium salt of 3-(4-cinnamyl-1-piperazinyl)-iminomethyl rifamycin SV [T-11]”, the solubility entry in series [1] is “soluble in water, methanol, ethanol, acetone and unsoluble in isopropanol”. The “stability of the obtained water solutions” value in series [2] is on record as “good stability”. In addition, the “antibacterial activity in vitro” value in series [3] is given as “good antibacterial activity”. The compound further gave a CL in series [4] of 0.092 mL·min/kg. For the same compound, in series [5], the AUC – broadly, the area under the concentration-time curve, a measure of exposure – is 671 µg·h/mL; the concentration peaked (Cmax) at 9200 ng/mL; the T1/2 was determined as 20.04 h; the Tmax (as a rule, the time at which the peak concentration occurs) came to 2 h. Besides, in series [6], the area under the curve (AUC) came to 299 µg·h/mL, the concentration peaked (Cmax) at 2710 ng/mL, the T1/2 came to 28.04 h and the Tmax came to 2 h. In addition, in series [7] (i.v), the T1/2 turned out to be 39.08 h. In series [7] (p.o), this compound had a T1/2 of 38.02 h.

In the case of `CO[C@H]1/C=C/O[C@@]2(C)Oc3c(C)c(O)c4c(O)c(c(/C=N/N5CCN(C)CC5)c(O)c4c3C2=O)NC(=O)/C(C)=C\C=C\[C@H](C)[C@H](O)[C@@H](C)[C@@H](O)[C@@H](C)[C@H](OC(C)=O)[C@@H]1C` [Rifampicin], in series [8], the acute toxicity was 1500 mg/kg.

Turning to `CO[C@H]1/C=C/O[C@@]2(C)Oc3c(C)c(O)c4c(O)c(c(/C=N/N5CCN(C/C=C/c6ccccc6)CC5)c(O)c4c3C2=O)NC(=O)/C(C)=C\C=C\[C@H](C)[C@H](O)[C@@H](C)[C@@H](O)[C@@H](C)[C@H](OC(C)=O)[C@@H]1C` [T-9, 3-(4-cinnamyl-1-piperazinyl)-iminomethyl rifamycin SV, reference compound], the solubility entry in [1] is “unsoluble”. Further, in series [4], the area under the curve (AUC) came to 735 µg·h/mL, the CL is 0.092 mL·min/kg, the Cmax (commonly the maximum level reached in the sampled fluid or tissue) turned out to be 12400 ng/mL and the Tmax was found to be 8 h. Moreover, in series [5], the AUC was 543 µg·h/mL, the Cmax was 8200 ng/mL, the T1/2 is 21.18 h and the time to peak (Tmax) is given as 6 h. In series [6], the AUC is 233 µg·h/mL, the highest level (Cmax) was 2750 ng/mL, the T1/2 came out at 56.63 h and the Tmax was 2 h. Further, the acute toxicity in [8] is listed as 4000 mg/kg. The “therapeutic activity in generalized tuberculosis” value in series [9] was “full organ sterilization”. Moreover, the T1/2 in [7] (p.o) was 33.70 h.
